IC50 and receptor occupancy data for 1 molecule are collected here from publication PMC10095950, “Development of Cell Permeable NanoBRET Probes for the Measurement of PLK1 Target Engagement in Live Cells” (Molecules, 2023).

Where only a bound is given, the exact number is not on record here.

Holding throughout (format): cell-based
Experiment [1] deals with T1, human PLK1 (NLuc-PLK1) (Homo sapiens, UniProt P53350).
T1 construct: plasmid DNAs encoding N- and C-terminal fusions of full-length PLK1 with NLuc; host or cells: HEK293
T1 sequence (P53350 whole entry, the tested form may be a part): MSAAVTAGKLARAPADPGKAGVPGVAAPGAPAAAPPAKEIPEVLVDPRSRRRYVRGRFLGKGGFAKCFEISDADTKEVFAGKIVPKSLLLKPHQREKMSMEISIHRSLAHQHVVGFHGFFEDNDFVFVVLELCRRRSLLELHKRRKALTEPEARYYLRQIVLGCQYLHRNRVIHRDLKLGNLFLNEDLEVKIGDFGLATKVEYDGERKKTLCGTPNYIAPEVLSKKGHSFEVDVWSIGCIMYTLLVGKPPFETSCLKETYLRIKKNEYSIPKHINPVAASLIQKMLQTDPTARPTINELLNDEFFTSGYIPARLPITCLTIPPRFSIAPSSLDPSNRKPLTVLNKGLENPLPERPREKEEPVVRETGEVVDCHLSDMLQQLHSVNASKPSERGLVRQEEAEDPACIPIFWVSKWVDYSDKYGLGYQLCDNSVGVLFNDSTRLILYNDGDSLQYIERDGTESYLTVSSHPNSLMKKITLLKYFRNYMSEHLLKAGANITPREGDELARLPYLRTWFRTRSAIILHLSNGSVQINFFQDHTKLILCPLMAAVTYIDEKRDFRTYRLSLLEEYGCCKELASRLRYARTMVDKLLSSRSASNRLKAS
Nature of the experiment: PLK1 NanoBRET target engagement assay (NLuc-PLK1, N-terminal fusion) in live HEK293 cells. The conditions noted are these: probe 11; at least three technical replicates; read-out: PLK1 NanoBRET IC50 (dose response, Figure 3a). The protocol:
HEK293 cells (ATCC) were cultured in DMEM (Gibco) + 10% FBS (Seradigm) with incubation in a humidified 37 °C/5% CO2 incubator. N- or C-terminal NLuc/PLK fusions were encoded in pFN31K expression vectors (Promega), including flexible Gly-Ser-Ser-Gly linkers between NLuc and ORFs corresponding to UniProt isoform 1 (PLK1: P53350-1, PLK2: Q9NYY3-1, and PLK3: Q9H4B4-1). Carrier DNA was encoded in pGEM-3Z vectors (Promega). For cellular BRET target engagement experiments, HEK293 cells were transfected with NLuc/PLK fusion constructs using FuGENE HD (Promega) according to the manufacturer’s protocol. […] One part (vol) of FuGENE HD complexes thus formed was combined with 20 parts (vol) of HEK293 cells suspended at a density of 2 × 10^5 per mL, followed by incubation in a humidified 37 °C/5% CO2 incubator for 20 hr.
To test BRET probes 10 and 11 against PLK1, HEK293 adherent cells were incubated with either NLuc fused to the N-terminus of PLK1 (NLuc-PLK1) or the C-terminus of PLK1 (PLK1-NLuc) using 1 µM of the BRET probe, and mBRET units were measured. […] NLuc-PLK2 and NLuc-PLK3 were tested with both probes 10 and 11 using the same protocol.
To estimate the half-maximal effective concentration (EC50) of probe 11 to PLK1 in cells, adherent HEK293 cells in a 96-well plate expressing the NLuc-PLK1 fusion protein were mixed with an increasing concentration of BRET probe 11. The resulting BRET ratio was fitted to the sigmoidal 4-parameter dose–response curve using Prism 9.0 (GraphPad, Boston MA, USA).
A general note: BRET reads energy transfer from a luciferase to a nearby fluorophore.

Experiment [2] addresses T2, WEE1 (Homo sapiens, UniProt P30291).
T2 construct: host or cells: HEK293
The conditions noted are these: live cell, K10 tracer.

The target in experiment [3] is T3, PLK2 (Homo sapiens, UniProt Q9NYY3).
T3 construct: host or cells: HEK293
T3 sequence (Q9NYY3 whole entry): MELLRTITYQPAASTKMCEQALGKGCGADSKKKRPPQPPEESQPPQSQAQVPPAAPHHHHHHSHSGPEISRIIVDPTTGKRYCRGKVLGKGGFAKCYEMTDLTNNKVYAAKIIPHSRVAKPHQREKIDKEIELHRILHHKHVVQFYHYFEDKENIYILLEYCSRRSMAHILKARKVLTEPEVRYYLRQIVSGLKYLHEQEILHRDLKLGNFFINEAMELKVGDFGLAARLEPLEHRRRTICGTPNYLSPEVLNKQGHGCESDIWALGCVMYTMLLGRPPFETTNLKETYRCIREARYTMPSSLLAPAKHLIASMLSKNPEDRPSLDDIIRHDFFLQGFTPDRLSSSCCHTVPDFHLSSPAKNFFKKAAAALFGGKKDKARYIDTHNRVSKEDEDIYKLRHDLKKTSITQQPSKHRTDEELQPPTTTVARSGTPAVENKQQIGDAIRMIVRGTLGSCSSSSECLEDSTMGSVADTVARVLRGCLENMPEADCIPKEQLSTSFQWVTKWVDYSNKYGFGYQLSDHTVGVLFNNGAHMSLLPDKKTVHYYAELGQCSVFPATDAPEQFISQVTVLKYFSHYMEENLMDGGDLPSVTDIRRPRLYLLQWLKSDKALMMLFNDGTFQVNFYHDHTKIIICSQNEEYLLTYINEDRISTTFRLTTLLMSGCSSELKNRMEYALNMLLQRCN
To be noted: live cell, K10 tracer.

The target in experiment [4] is T4, TNNI3K (Homo sapiens, UniProt Q59H18).
T4 construct: host or cells: HEK293
T4 sequence (Q59H18 1-835): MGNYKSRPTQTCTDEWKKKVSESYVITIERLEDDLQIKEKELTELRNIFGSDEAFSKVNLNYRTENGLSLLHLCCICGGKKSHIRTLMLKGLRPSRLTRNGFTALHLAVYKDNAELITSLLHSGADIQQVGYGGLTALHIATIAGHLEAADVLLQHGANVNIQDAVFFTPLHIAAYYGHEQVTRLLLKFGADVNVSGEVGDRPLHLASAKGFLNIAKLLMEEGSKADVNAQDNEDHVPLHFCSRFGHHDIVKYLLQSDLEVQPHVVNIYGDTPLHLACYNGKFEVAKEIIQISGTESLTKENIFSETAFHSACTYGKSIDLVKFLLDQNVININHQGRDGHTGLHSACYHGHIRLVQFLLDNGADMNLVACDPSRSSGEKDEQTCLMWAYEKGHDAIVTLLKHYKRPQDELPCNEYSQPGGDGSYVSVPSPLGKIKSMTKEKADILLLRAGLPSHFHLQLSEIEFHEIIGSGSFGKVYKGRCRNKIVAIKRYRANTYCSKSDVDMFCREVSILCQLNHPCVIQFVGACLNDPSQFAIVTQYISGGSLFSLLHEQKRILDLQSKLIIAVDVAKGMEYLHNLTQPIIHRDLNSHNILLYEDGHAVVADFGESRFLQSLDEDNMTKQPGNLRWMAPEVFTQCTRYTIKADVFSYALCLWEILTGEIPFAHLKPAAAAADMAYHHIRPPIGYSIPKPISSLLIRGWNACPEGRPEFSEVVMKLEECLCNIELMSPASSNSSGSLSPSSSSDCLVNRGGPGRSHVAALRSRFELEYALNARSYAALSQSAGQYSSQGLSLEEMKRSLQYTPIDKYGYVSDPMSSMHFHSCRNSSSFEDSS
To be noted: live cell, K10 tracer.

Experiment [5] addresses T5, MAP3K4 (Homo sapiens, UniProt Q9Y6R4).
T5 construct: host or cells: HEK293
To be noted: live cell, K10 tracer.

Experiment [6] concerns the target T6, GAK (Homo sapiens, UniProt O14976).
T6 construct: host or cells: HEK293
T6 sequence (O14976 1-1311): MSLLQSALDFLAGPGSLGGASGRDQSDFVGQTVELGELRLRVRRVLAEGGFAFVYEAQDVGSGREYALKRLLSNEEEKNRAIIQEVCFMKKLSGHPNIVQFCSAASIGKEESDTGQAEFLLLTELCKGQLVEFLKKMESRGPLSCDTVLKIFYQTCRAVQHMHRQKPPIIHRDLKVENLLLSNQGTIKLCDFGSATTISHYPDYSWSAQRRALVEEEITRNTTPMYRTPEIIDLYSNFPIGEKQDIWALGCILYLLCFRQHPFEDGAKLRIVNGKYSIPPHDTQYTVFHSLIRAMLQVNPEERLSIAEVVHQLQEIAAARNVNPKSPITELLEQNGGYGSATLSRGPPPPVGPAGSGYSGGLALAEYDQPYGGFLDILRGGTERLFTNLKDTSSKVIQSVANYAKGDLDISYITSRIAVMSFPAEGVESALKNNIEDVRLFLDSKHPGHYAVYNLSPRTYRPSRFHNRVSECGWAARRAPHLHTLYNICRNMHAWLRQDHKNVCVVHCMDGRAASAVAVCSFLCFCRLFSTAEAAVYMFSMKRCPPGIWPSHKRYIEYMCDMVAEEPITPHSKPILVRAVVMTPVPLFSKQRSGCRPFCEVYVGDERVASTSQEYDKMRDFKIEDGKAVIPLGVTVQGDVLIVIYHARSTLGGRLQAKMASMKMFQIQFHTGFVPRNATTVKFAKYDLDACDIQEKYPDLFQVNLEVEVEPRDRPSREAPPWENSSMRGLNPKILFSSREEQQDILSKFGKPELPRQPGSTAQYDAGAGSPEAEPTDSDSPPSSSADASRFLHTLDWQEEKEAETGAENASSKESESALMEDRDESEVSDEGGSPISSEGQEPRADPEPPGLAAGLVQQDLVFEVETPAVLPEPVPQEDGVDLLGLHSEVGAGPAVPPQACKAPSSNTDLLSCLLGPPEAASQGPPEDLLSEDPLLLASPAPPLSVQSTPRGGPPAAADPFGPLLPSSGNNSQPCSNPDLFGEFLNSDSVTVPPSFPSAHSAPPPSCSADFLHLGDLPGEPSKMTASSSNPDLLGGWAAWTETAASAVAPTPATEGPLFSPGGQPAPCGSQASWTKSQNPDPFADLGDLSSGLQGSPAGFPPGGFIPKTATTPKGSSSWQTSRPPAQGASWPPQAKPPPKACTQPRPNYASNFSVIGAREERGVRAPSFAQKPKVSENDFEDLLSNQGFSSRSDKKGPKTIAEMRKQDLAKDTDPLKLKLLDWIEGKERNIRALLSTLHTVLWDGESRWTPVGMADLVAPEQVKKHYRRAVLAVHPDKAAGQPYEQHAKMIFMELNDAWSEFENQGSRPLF
The conditions noted are these: live cell, K10 tracer.

The target in experiment [7] is T7, WEE2 (Homo sapiens, UniProt P0C1S8).
T7 construct: host or cells: HEK293
T7 sequence (P0C1S8 whole entry): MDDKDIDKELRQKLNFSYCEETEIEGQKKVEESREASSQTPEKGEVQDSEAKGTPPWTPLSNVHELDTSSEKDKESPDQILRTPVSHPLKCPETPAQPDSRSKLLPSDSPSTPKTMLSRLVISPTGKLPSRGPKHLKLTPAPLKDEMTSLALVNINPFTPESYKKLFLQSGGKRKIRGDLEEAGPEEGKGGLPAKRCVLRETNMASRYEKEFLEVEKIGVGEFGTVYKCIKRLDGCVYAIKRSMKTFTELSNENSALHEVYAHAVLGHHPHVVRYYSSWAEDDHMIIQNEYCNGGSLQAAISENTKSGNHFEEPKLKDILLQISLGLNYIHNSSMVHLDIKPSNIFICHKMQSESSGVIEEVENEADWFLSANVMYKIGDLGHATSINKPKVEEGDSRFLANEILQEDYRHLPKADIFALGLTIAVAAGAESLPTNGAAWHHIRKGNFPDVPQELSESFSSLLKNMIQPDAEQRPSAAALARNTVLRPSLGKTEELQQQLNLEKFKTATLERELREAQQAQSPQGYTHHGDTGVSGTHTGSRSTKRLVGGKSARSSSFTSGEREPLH
To be noted: live cell, K10 tracer.

The target in experiment [8] is T8, PLK3 (Homo sapiens, UniProt Q9H4B4).
T8 construct: host or cells: HEK293
T8 sequence (Q9H4B4 whole entry): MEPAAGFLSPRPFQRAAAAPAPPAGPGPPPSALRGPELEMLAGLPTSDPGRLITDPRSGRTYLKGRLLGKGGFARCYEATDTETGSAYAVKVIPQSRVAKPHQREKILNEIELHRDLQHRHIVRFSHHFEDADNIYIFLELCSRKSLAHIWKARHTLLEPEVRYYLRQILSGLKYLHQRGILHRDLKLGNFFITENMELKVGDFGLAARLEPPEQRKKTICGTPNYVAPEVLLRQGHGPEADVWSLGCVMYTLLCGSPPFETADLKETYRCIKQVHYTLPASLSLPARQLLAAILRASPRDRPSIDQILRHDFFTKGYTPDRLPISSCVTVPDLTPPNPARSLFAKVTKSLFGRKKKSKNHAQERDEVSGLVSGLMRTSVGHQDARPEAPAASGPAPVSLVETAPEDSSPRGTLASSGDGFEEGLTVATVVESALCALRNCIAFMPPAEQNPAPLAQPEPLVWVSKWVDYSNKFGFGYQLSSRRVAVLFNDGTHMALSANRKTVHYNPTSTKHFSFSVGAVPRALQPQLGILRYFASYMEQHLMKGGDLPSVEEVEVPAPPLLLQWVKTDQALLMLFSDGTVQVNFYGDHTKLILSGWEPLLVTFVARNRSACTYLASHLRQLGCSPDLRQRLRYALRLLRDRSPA
The conditions noted are these: live cell, K10 tracer.

T2 sequence (P30291 whole entry): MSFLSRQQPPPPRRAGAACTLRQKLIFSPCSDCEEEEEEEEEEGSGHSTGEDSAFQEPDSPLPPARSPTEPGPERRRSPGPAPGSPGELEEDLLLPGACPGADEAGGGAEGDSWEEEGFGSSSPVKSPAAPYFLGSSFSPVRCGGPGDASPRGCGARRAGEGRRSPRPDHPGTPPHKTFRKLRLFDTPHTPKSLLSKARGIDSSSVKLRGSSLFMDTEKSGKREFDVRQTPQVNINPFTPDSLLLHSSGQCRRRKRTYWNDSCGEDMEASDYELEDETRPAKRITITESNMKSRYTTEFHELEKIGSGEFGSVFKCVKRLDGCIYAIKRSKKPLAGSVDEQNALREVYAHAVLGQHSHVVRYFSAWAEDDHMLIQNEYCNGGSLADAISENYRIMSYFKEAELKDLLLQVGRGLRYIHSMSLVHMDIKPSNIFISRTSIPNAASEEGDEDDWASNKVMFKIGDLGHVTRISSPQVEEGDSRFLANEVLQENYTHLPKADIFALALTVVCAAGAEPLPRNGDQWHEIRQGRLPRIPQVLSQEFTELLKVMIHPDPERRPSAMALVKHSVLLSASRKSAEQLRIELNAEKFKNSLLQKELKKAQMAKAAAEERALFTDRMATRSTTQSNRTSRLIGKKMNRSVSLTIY
T5 sequence (Q9Y6R4 whole entry): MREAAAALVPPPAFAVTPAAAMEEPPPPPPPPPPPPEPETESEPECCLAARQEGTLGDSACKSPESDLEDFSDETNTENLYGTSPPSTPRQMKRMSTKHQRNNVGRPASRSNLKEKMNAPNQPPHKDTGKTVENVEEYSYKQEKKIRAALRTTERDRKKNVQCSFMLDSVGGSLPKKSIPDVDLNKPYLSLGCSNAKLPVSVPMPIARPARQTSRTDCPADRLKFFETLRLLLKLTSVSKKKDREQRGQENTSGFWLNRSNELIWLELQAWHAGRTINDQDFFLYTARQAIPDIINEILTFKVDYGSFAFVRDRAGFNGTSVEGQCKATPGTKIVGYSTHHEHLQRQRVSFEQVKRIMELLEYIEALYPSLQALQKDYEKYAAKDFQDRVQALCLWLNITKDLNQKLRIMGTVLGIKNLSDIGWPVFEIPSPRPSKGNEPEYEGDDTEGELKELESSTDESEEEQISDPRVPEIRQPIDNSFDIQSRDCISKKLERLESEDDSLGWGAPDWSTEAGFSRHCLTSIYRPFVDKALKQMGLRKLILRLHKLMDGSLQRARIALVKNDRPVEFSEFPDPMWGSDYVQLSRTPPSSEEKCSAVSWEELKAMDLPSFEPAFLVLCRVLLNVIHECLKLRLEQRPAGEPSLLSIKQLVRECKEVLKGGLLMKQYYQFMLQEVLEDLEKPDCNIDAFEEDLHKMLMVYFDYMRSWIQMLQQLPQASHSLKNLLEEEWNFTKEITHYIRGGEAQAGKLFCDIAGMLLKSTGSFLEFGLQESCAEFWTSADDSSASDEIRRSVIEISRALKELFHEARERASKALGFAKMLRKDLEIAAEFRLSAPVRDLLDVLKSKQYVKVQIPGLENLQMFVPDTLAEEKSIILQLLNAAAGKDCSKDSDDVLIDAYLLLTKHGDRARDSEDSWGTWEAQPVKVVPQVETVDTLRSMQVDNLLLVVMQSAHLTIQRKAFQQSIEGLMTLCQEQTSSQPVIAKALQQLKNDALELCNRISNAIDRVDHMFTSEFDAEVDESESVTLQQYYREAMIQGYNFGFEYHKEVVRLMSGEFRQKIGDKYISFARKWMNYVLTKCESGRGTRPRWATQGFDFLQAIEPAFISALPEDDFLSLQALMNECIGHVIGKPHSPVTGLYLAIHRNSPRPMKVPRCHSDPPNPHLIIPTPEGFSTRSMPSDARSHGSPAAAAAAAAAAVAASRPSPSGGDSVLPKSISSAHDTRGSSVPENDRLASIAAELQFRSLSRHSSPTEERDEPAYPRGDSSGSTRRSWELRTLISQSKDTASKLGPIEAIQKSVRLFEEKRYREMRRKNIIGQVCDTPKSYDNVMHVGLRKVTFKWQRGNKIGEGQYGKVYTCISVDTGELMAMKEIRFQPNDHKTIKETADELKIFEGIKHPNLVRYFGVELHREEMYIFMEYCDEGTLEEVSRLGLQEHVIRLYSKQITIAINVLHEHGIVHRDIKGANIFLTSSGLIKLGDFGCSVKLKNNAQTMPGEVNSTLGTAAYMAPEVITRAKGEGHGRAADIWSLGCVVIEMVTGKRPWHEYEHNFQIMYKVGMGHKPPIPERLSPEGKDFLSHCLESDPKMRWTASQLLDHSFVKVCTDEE

On to `C=CCn1c(=O)c2cnc(Nc3ccc(N4CCN(C)CC4)cc3)nc2n1-c1cccc(C(C)(C)O)n1` [adavosertib], for which the IC50 (usually the concentration that gives 50% inhibition) in experiment [1] was above 1000 nM. Further, the receptor occupancy at 1 µM was 95% in experiment [2]; 95% in experiment [3]; 70% in experiment [4]; 67% in experiment [5]; 63% in experiment [6]; 59% in experiment [7]. Also, the receptor occupancy at 1 µM in experiment [8] is 53%.
